# Results reported in US20240358842A1, “PROTEIN STABILIZING COMPOUNDS CONTAINING USP7 LIGANDS” (Stablix, Inc., priority 2021, published 2024).
# Like-named read-outs stand apart in the source and are kept apart here.
# Legend:
# [1] = biological target: T1, USP7 CD + UBL 1-5 (Homo sapiens, UniProt Q93009); experiment: Surface plasmon resonance assay (SPR); type: binding
# T1 construct: USP7 CD +
# Protocol: The surface plasmon resonance experiments were performed using a Cytiva (formerly GE Healthcare) Biacore 8K equipped with a Series S Sensor Chip SA. The ligands were immobilized via a biotin-modified biotin acceptor peptide. USP7 Ligands were diluted in running buffer (HBS-P+2% DMSO; 10 mM HEPES, pH 7.4, 150 mM NaCl, 1 mM DTT, 0.05% P20, 2% DMSO) to 100 μg/mL and injected at […] until a density between 500-10,000 RU was reached on flow-cell two of each channel, and flow cell one was left blank to serve as a reference surface. Both surfaces were washed until a stable baseline was achieved then 30 startup cycles to condition the surface. To collect kinetic and steady-state binding data, the small molecule analytes were prepared in three-fold dilution series in HBS-P+2% DMSO running buffer. Analytes were injected over both flow cells at a flow rate of […] at 25° C. The complex was allowed to associate for 60 seconds and dissociate for 300 seconds. Data were collected at 10 Hz. The data were fit to a simple 1:1 interaction model global data analysis within Cytiva Biacore Insight Evaluation Software.
# [2] = biological target: USP7 (Homo sapiens, UniProt Q93009); experiment: Ub-Rho cleavage assay; type: biochemical
# Protocol: All fluorescence measurements were performed on a Molecular Devices FlexStation3 with excitation at 480 nm and emission 540 nm, PMT Gain: Medium, Flash Number: 10. […] Assay buffer for all measurements was 50 mM HEPES, 100 mM NaCl, 0.5 mM EDTA, 1 mM TCEP, 0.1 mg/ml BSA, 0.01% Tween-20, pH 7.8. […] Serial dilutions were made with a Mosquito HTS (SPT Labtech) nanoliter liquid handler. 200 nL of each compound in duplicate or DMSO control were transferred to the assay plate. The first two columns served as positive controls. 9.8 μl per well of USP7 working solution was added to the assay plate. Compound+Protein was incubated for 25 min at 25° C. 10 uL of Ub-Rho substrate was added per well and incubated for an additional 15 min at 25° C. Fluorescence was then measured. Percent response relative to DMSO controls was calculated in GraphPad or Scinamic, and the data was fitted to a non-linear regression to determine IC50 values.
# [3] = steady-state KD, read-out: SPR USP7 CD + UBL 1-5 (KD_ss)
# [4] = Ub-Rho substrate, recombinant USP7, read-out: Ub (Rho) USP7.1 (IC50)
# [5] = kinetic KD, read-out: SPR USP7 CD + UBL 1-5 (KD_kinetic)
# T1 sequence (Q93009 208-1102 limits assumed): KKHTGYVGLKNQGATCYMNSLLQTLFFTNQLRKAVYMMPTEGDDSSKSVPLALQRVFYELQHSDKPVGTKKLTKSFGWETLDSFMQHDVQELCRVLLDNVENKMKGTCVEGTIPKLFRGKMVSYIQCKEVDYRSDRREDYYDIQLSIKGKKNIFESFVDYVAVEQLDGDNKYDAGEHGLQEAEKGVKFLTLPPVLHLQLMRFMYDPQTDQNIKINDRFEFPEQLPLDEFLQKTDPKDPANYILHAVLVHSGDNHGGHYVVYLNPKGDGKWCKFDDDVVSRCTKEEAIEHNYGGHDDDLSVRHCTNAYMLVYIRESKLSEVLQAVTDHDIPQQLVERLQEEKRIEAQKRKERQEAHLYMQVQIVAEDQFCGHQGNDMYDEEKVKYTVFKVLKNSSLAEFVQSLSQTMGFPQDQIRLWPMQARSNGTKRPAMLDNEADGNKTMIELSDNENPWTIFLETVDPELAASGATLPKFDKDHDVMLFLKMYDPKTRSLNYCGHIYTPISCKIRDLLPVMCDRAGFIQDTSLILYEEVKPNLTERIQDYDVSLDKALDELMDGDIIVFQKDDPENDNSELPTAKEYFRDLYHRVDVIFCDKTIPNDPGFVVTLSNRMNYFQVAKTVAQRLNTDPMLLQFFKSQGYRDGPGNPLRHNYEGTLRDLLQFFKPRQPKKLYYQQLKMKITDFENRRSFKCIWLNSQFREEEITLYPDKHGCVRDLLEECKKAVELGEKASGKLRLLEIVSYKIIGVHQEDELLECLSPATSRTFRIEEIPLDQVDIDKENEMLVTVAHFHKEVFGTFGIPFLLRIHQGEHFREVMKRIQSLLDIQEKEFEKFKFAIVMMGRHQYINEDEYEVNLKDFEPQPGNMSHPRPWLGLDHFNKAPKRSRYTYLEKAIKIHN
# Sequence of USP7 (Q93009 whole entry): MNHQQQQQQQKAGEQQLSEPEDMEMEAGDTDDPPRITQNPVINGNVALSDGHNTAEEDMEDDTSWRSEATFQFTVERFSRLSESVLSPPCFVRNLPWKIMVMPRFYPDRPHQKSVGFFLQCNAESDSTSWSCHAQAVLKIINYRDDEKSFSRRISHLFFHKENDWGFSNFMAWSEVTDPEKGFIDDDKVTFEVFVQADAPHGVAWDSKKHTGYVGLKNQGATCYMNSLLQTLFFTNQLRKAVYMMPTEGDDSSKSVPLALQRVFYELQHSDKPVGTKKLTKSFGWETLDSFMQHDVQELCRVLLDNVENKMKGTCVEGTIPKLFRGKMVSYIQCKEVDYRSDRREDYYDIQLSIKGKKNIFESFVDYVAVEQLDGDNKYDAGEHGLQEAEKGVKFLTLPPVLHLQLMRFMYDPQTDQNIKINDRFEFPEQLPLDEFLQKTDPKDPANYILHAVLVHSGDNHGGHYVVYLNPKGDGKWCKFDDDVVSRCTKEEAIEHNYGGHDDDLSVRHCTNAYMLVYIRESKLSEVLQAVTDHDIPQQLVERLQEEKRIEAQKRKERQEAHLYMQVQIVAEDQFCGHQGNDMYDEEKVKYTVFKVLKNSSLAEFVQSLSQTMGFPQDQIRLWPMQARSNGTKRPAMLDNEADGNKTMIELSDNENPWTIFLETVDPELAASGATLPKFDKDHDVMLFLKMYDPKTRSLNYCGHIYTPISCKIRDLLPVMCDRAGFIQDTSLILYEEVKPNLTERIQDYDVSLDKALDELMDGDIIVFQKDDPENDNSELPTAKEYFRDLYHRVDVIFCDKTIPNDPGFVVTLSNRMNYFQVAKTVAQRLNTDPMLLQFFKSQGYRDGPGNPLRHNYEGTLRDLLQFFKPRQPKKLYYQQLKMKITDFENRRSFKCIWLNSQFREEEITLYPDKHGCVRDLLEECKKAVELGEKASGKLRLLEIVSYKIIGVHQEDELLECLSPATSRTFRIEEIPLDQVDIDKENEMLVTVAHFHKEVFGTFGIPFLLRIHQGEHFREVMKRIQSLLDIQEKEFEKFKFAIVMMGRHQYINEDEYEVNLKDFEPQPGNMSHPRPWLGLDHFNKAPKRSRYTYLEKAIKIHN
SMILES,"Kd [1, 3]","IC50 [2, 4]","Kd [1, 5]","Kd ([1]; SPR USP7 CD + UBL 1-5 (KD_ss) [nM], steady-state KD)",IC50 [2]
CC(=O)N1CCCn2nc(C(=O)Nc3nc4ccc(NS(=O)(=O)c5cccs5)cc4s3)cc2C1 [U96],1000 to 100000 nM,> 100000 nM,–,–,–
Nc1ncc(-c2ccc(O)cc2)cc1-c1ccc(O)cc1 [U24],1000 to 100000 nM,1000 to 100000 nM,–,–,–
CN1CCC(C(=O)Nc2nc3ccc(NS(=O)(=O)c4cnccn4)cc3s2)CC1 [U93],1000 to 100000 nM,> 100000 nM,–,–,–
CN1CCCn2nc(C(=O)Nc3nc4ccc(NS(=O)(=O)C5CCNC5)cc4s3)cc2C1 (stereo not shown) [U128],1000 to 100000 nM,> 100000 nM,–,–,–
Cc1cc(Cl)cc(-c2ccnc3cc(CN4C(=O)CCC4=O)sc23)c1OC1CCN(CCCNC(=O)CCCCCCCNC(=O)OC(C)(C)C)CC1 [U41],< 1000 nM,< 1000 nM,–,–,–
C[C@H](CC(=O)N1CCC(O)(Cn2cnc3cc(N(C)CCN(C)CCCNC(=O)OC(C)(C)C)ccc3c2=O)CC1)c1ccccc1 [U5],< 1000 nM,< 1000 nM,< 1000 nM,–,–
Cc1nocc1S(=O)(=O)Nc1ccc2nc(NC(=O)C3CCN(C)CC3)sc2c1 [U90],1000 to 100000 nM,> 100000 nM,–,–,–
CCC(=O)N1CCC(C(=O)Nc2nc3ccc(NS(=O)(=O)c4cccs4)cc3s2)C1 (stereo not shown) [U122],1000 to 100000 nM,> 100000 nM,–,–,–
CN1CCCn2nc(C(=O)Nc3nc4ccc(NS(=O)(=O)c5cc6ccccn6n5)cc4s3)cc2C1 [U130],1000 to 100000 nM,> 100000 nM,–,–,–
O=C(Nc1nc2ccc(NS(=O)(=O)c3cccs3)cc2s1)c1ccn[nH]1 [U118],1000 to 100000 nM,> 100000 nM,–,–,–
CCc1c(-c2ccc3c(cnn3CCN)c2)cnc(CNC(=O)OC(C)(C)C)c1-c1ccc(O)cc1 [U82],1000 to 100000 nM,1000 to 100000 nM,–,–,–
CCc1c(-c2ccc3[nH]ncc3c2)cnc(N)c1-c1ccc(O)cc1 [U8],1000 to 100000 nM,1000 to 100000 nM,1000 to 100000 nM,–,–
Cc1cc(Cl)cc(-c2ccnc3cc(CN4C(=O)CCC4=O)sc23)c1OC1CCN(CCCNC(=O)CCCCCCNC(=O)OC(C)(C)C)CC1 [U40],< 1000 nM,< 1000 nM,–,–,–
C[C@H](CC(=O)N1CCC(O)(Cn2cnc3cc(NC(=O)CCN4CCN(CCN=[N+]=[N-])CC4)ccc3c2=O)CC1)c1ccccc1 [U46],< 1000 nM,< 1000 nM,–,–,–
CN1CCn2cnc(C(=O)Nc3nc4ccc(NS(=O)(=O)c5cccs5)cc4s3)c2C1 [U97],1000 to 100000 nM,> 100000 nM,–,–,–
CN1CCC(NC(=O)c2nc3ccc(NS(=O)(=O)c4cccs4)cc3s2)CC1 [U92],> 100000 nM,> 100000 nM,–,–,–
CCOC(=O)NCc1ccc(-c2ccc3n[nH]cc3c2)c(CC)c1-c1ccc(O)cc1 [U78],1000 to 100000 nM,1000 to 100000 nM,–,–,–
CCn1cc(S(=O)(=O)Nc2ccc3nc(NC(=O)C4CCN(C)CC4)sc3c2)cn1 [U73],> 100000 nM,1000 to 100000 nM,–,–,–
CCc1c(-c2ccc(C(=O)NC)nc2)ccc(CNCCNC(=O)OC(C)(C)C)c1-c1ccc(O)cc1 [U43],1000 to 100000 nM,1000 to 100000 nM,–,–,–
CCc1c(-c2ccc(C(=O)NC)nc2)cnc(CNC(=O)OC(C)(C)C)c1-c1ccc(O)cc1 [U47],1000 to 100000 nM,1000 to 100000 nM,–,–,–

SMILES,"Kd [1, 3]","IC50 [2, 4]","Kd [1, 5]","Kd ([1]; SPR USP7 CD + UBL 1-5 (KD_ss) [nM], steady-state KD)",IC50 [2]
CCc1c(-c2ccc(C(=O)NCCOCCOCCOCCN=[N+]=[N-])nc2)cnc(N)c1-c1ccc(O)cc1 [U10],1000 to 100000 nM,1000 to 100000 nM,1000 to 100000 nM,–,–
O=C(Nc1nc2ccc(NS(=O)(=O)c3cccs3)cc2s1)c1ccco1 [U68],1000 to 100000 nM,> 100000 nM,–,–,–
C[C@H](CC(=O)N1CCC(O)(Cn2cnc3cc(Br)ccc3c2=O)CC1)c1ccccc1 [U3],1000 to 100000 nM,1000 to 100000 nM,1000 to 100000 nM,–,–
CN1CCC(C(=O)Nc2nc3ccc(NS(=O)(=O)c4ccc5c(c4)CC(=O)N5C)cc3s2)CC1 [U72],> 100000 nM,> 100000 nM,–,–,–
Cc1cc(Cl)cc(-c2ccnc3cc(CN4C(=O)CCC4=O)sc23)c1OC1CCN(CCCCCCCNC(=O)OC(C)(C)C)CC1 [U30],< 1000 nM,< 1000 nM,< 1000 nM,–,–
CCc1c(-c2ccc3[nH]ncc3c2)cnc(CN)c1-c1ccc(O)cc1 [U63],1000 to 100000 nM,1000 to 100000 nM,–,–,–
C[C@H](CC(=O)N1CCC(O)(Cn2cnc(NCCN3CCN(CCN)CC3)cc2=O)CC1)c1ccccc1 [U37],< 1000 nM,< 1000 nM,–,–,–
CN1CCC(C(=O)Nc2nc3ccc(NS(=O)(=O)c4cnc(Cl)s4)cc3s2)CC1 [U95],> 100000 nM,> 100000 nM,–,–,–
C[C@H](CC(=O)N1CCC(O)(Cn2cnc3c(C#CCO)csc3c2=O)CC1)c1ccccc1 [U1],< 1000 nM,< 1000 nM,< 1000 nM,–,–
CN1CCCn2nc(C(=O)Nc3nc4ccc(N(CCN)S(=O)(=O)c5cccs5)cc4s3)cc2C1 [U108],> 100000 nM,> 100000 nM,–,–,–
Cc1cc(Cl)cc(-c2ccnc3cc(CN4C(=O)CCC4=O)sc23)c1OC1CCN(CCCNC(=O)CCNC(=O)OC(C)(C)C)CC1 [U39],< 1000 nM,< 1000 nM,–,–,–
CN1CCC(C(=O)Nc2nc3ccc(NS(=O)(=O)CC4CC4)cc3s2)CC1 [U74],1000 to 100000 nM,> 100000 nM,–,–,–
Cc1cc(Cl)cc(-c2ccnc3cc(CN4C(=O)CCC4=O)sc23)c1OC1CCN(C(=O)CCNC(=O)OC(C)(C)C)CC1 [U13],1000 to 100000 nM,1000 to 100000 nM,–,–,–
CCc1c(-c2ccc(C(=O)NCCCNC(=O)CCCCNC(=O)OC(C)(C)C)nc2)cnc(N)c1-c1ccc(O)cc1 [U45],1000 to 100000 nM,1000 to 100000 nM,–,–,–
CCc1c(-c2ccc(C(=O)NCCCNC(=O)OC(C)(C)C)nc2)cnc(N)c1-c1ccc(O)cc1 [U7],1000 to 100000 nM,1000 to 100000 nM,1000 to 100000 nM,–,–
C[C@H](CC(=O)N1CCC(O)(Cn2cnc3c(C#CCO)n(C)nc3c2=O)CC1)c1ccccc1 [U23],< 1000 nM,< 1000 nM,–,–,–
CN1CCC(C(=O)Nc2nc3ccc(NS(=O)(=O)N4CC(F)C4)cc3s2)CC1 [U89],> 100000 nM,> 100000 nM,–,–,–
C#CCCN1CCCn2nc(C(=O)Nc3nc4ccc(NS(=O)(=O)c5cccs5)cc4s3)cc2C1 [U119],1000 to 100000 nM,> 100000 nM,–,–,–
O=C(C[C@@H](C(F)F)n1ccc(F)n1)N1CCC(O)(Cn2cnc3c(cnn3-c3ccc(F)cc3)c2=O)CC1 [U25],–,–,–,< 1000 nM,< 1000 nM
